Molecular target: MAGE-A11:PCF11 (Homo sapiens (Human), UniProt P43364)
Assay: TR-FRET single point screening at 15 μM
Type: binding
Design: unit not given here
Source text: TR-FRET Assays and High-throughput Screen. Terbium-anti-GST antibody, 1 M Tris pH 7.5 1 M MgCl2 and 1 M DTT were purchased from Invitrogen (Carlsbad, CA), BSA was purchased from Sigma (St. Louis, MO). Dimethyl sulfoxide (DMSO) was purchased from Fisher Scientific (Pittsburgh, PA). Black 384-well low volume plates and 384-well polypropylene compound plates were purchased from Corning Incorporated (Tewksbury, MA). The St. Jude FDA drug and Bioactive library (11,293 chemicals), Drug-like library (10,073 chemicals) and Lead-like library (10,041 chemicals) were custom assembled and purchased from commercial sources including Sigma, Microsource (Gaylordsville, CT), selleckchem (Houston, TX), ChemDiv (San Diego, CA), ChemBridge (San Diego, CA), Enamine (Monmouth Jct., NJ), and Life Chemicals (Niagara-on-the-Lake, ON, Canada). They were arrayed (10 mM in DMSO) in 384-well polypropylene compound plates with columns 1, 2, 13 and 14 empty which were reserved for controls.
The TR-FRET assay buffer with a formula of 50 mM Tris pH 7.5, 20 mM MgCl2, 0.1 mg/ml BSA and 1 mM DTT was freshly prepared before each experiment. All TR-FRET assays were performed in black 384-well plates with 20 μl/well assay volume in the TR-FRET assay buffer at room temperature (approximately 25° C.). All peptides or compounds were solubilized in DMSO. To test the competitive activity of peptides or compounds against the interaction between GST-MAGEA11 MHD and FAM-PCF11_4 peptide, 10 μl/well peptide or compound at specified concentration was dispensed into a black 384-well low volume plate, followed by 5 μl/well FAM-PCF11_4 (800 nM), 5 μl/well Tb-anti-GST (20 nM) and GST-MAGEA11 MHD (20 nM). The assay components in each well was then mixed by shaking the plate on an IKA MTS 2/4 digital microtiter plate shaker (IKA Works; Wilmington, NC, USA) at 900 RPM for 1 minute. The plate was further centrifuged in an Eppendorf 5810 centrifuge with an A-4-62 swing-bucket rotor (Eppendorf AG, Hamburg, Germany) at 201 g (1000 rpm) for 30 seconds. The plate was then incubated for 90 min with a lid to avoid light exposure to the assay components. After incubation, the fluorescent emission signals at 520 nm and 490 nm channels of individual wells were measured with a PHERAstar FS plate reader (BMG Labtech; Durham, NC, USA) by using a 340 nm excitation filter, 100 μs delay time, and 200 μs integration time. The TR-FRET fluorescence emission ratio (TR-FRET signal) for each well was presented as 10 000×520 nm/490 nm, which was used directly for curve fitting, or further converted to % Inhibition based on the respective positive and negative controls. The graphic software GraphPad Prism 4.81 (GraphPad Software; La Jolla, CA, USA) was used to generate curves and derive IC50 values of tested peptides or compounds, if applicable.
TR-FRET screen for identifying MAGEA11 small molecule inhibitors was performed as follows. The primary one-concentration screening and subsequent 10 or 20-concentration dose response tests were accomplished with an automated High Throughput Screening system (HighRes Biosolutions, Beverly, MA)^30. In the primary screening, 15 μl/well FAM-PCF11_4 (267 nM) was first dispensed with a Multidrop Combi Reagent Dispenser (Thermo Fisher Scientific, Waltham, MA) to black 384-well low volume assay plates. The plates were spun down with a Velocity11 VSpin microplate centrifuge (Agilent Technologies, Santa Clara, CA). 30 nl/well of 10 mM compound/DMSO solutions, or DMSO alone, were transferred from compound plates (the St. Jude FDA drug and bioactive library, Drug-like library and Lead-like library) or a control plate to the assay plates with a Pin Tool (V&P Scientific, San Diego, CA). The compounds were arrayed in columns 3 to 12 and columns 15 to 24 of compound plates. The controls were arrayed in columns 1, 2, 13 and 14 of a compound plate. […]

[1] = single point TR-FRET screening of quinoline compounds against MAGE-A11:PCF11, 15 μM
[2] = single point TR-FRET screening at 15 μM against MAGE-A11:PCF11

Sequence of MAGE-A11:PCF11 (P43364 218-429): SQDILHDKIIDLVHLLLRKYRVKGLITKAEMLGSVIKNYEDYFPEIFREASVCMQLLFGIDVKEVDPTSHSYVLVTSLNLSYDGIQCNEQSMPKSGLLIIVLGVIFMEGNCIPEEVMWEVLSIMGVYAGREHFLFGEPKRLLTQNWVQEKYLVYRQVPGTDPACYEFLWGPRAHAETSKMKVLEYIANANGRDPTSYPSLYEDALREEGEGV

SMILES	TR-FRET signal [1]	TR-FRET signal [2]
Clc1ccc2c(NCCCNCc3ccco3)ccnc2c1 [SJ000000502]	6.349	–
CN(C)CCNc1c2c(nc3ccccc13)CCC2 [SJ000013622]	–	3.285
O=C(O)CCCNC(=O)CNc1c2ccccc2nc2ccccc12 [SJ000016432]	–	9.598
CC(Nc1c2ccccc2nc2ccccc12)C(=O)NC(CC(N)=O)C(=O)O (centres unmarked) [SJ000016433]	–	22.71
CCOC(=O)c1cnc2c(ccc3ccccc32)c1NCCN(C)C [SJ000019487]	–	6.418
CCN(CC)CC(=O)Nc1c2c(nc3ccccc13)CCCC2 [SJ000019523]	–	2.741
CCOC(=O)c1cnc2c(C)cc(Cl)cc2c1NCCN(C)C [SJ000027210]	–	3.834
CCOC(=O)c1cnc2c(Cl)c(Cl)ccc2c1NCCN(C)C [SJ000027266]	–	2.575
CCOC(=O)c1cnc2ccc(C)cc2c1NCCN1CCOCC1 [SJ000027268]	–	−0.3915
CCOC(=O)c1cnc2ccc(OCC)cc2c1NCCN(C)C [SJ000027288]	–	10.66
CCOC(=O)c1cnc2ccc(OCC)cc2c1NCCN1CCOCC1 [SJ000027289]	–	5.291
CN(C)CCCNc1c2c(nc3ccccc13)CCC2 [SJ000029259]	24.05	–
CCOC(=O)c1cnc2ccc(Br)cc2c1NCCN1CCOCC1 [SJ000031339]	–	−47.24
CCOC(=O)c1ccc2ncc(C(=O)OCC)c(NCCN3CCOCC3)c2c1 [SJ000031347]	–	0.6542
CCOC(=O)c1cnc2c(C)c(Cl)ccc2c1NCCN(C)C [SJ000037393]	–	−1.333
CCOC(=O)c1cnc2c(C)cc(C)cc2c1NCCN(C)C [SJ000037396]	–	4.92
CCOC(=O)c1cnc2c(C)cc(C)cc2c1NCCCN(C)C [SJ000037397]	14.93	–
CN(C)CCCNc1c2ccccc2nc2ccccc12 [SJ000044378]	16.77	–
NC(=O)CC(Nc1c2ccccc2nc2ccccc12)C(=O)O (centres unmarked) [SJ000044383]	20.1	–
CCc1nc2ccccc2c(NC(=O)CNC(C)(C)CC(C)(C)C)c1C [SJ000049110]	–	−0.6045

SMILES	TR-FRET signal [1]	TR-FRET signal [2]
CCN(CC)CC(=O)Nc1c2c(nc3ccccc13)CCC2 [SJ000049655]	–	0.6542
Cc1ccc2ncc(S(=O)(=O)c3ccccc3)c(N3CCN(C)CC3)c2c1 [SJ000083945]	–	−8.419
CCc1ccc2ncc(S(=O)(=O)c3ccccc3)c(N3CCN(C)CC3)c2c1 [SJ000083946]	–	−6.249
COc1ccc2ncc(S(=O)(=O)c3ccccc3)c(N3CCN(C)CC3)c2c1 [SJ000083947]	–	−2.094
CCOc1ccc2ncc(S(=O)(=O)c3ccccc3)c(N3CCN(C)CC3)c2c1 [SJ000083948]	–	−3.938
CN1CCN(c2c(S(=O)(=O)c3ccccc3)cnc3ccc(F)cc23)CC1 [SJ000083949]	–	−11.5
CN1CCN(c2c(S(=O)(=O)c3ccccc3)cnc3ccc(Cl)cc23)CC1 [SJ000083950]	–	−5.374
COc1cc2ncc(S(=O)(=O)c3ccc(C)cc3)c(N3CCN(C)CC3)c2cc1OC [SJ000083951]	–	1.313
COc1ccc2ncc(S(=O)(=O)c3ccc(Cl)cc3)c(N3CCN(C)CC3)c2c1 [SJ000083952]	–	−3.658
COc1cc2ncc(S(=O)(=O)c3ccc(Cl)cc3)c(N3CCN(C)CC3)c2cc1OC [SJ000083953]	–	4.674
CCc1ccc2ncc(S(=O)(=O)c3ccc(OC)cc3)c(N3CCN(C)CC3)c2c1 [SJ000083954]	–	−5.969
COc1ccc(S(=O)(=O)c2cnc3cc(OC)c(OC)cc3c2N2CCN(C)CC2)cc1 [SJ000083955]	–	0.8227
CCN1CCN(c2c(S(=O)(=O)c3ccccc3)cnc3ccc(C)cc23)CC1 [SJ000083956]	–	−3.448
CCc1ccc2ncc(S(=O)(=O)c3ccccc3)c(N3CCN(CC)CC3)c2c1 [SJ000083957]	–	3.238
CCN1CCN(c2c(S(=O)(=O)c3ccccc3)cnc3ccc(OC)cc23)CC1 [SJ000083958]	–	0.1242
CCOc1ccc2ncc(S(=O)(=O)c3ccccc3)c(N3CCN(CC)CC3)c2c1 [SJ000083959]	–	4.534
CCN1CCN(c2c(S(=O)(=O)c3ccccc3)cnc3ccc(Cl)cc23)CC1 [SJ000083960]	–	4.43
CCN1CCN(c2c(S(=O)(=O)c3ccc(C)cc3)cnc3ccc(C)cc23)CC1 [SJ000083961]	–	0.2213
CCc1ccc2ncc(S(=O)(=O)c3ccc(C)cc3)c(N3CCN(CC)CC3)c2c1 [SJ000083962]	–	2.377
CCN1CCN(c2c(S(=O)(=O)c3ccc(C)cc3)cnc3ccc(OC)cc23)CC1 [SJ000083963]	–	−3.917

SMILES	TR-FRET signal [1]	TR-FRET signal [2]
CCOc1ccc2ncc(S(=O)(=O)c3ccc(C)cc3)c(N3CCN(CC)CC3)c2c1 [SJ000083964]	–	−5.899
CCN1CCN(c2c(S(=O)(=O)c3ccc(C)cc3)cnc3cc(OC)c(OC)cc23)CC1 [SJ000083965]	–	7.146
CCN1CCN(c2c(S(=O)(=O)c3ccc(C)cc3)cnc3ccc(Cl)cc23)CC1 [SJ000083966]	–	−4.358
CCN1CCN(c2c(S(=O)(=O)c3ccc(Cl)cc3)cnc3ccc(C)cc23)CC1 [SJ000083967]	–	−3.098
CCc1ccc2ncc(S(=O)(=O)c3ccc(Cl)cc3)c(N3CCN(CC)CC3)c2c1 [SJ000083968]	–	−19.13
CCOc1ccc2ncc(S(=O)(=O)c3ccc(Cl)cc3)c(N3CCN(CC)CC3)c2c1 [SJ000083969]	–	−4.989
CCN1CCN(c2c(S(=O)(=O)c3ccc(Cl)cc3)cnc3cc(OC)c(OC)cc23)CC1 [SJ000083970]	–	−6.809
CCOc1ccc2ncc(S(=O)(=O)c3ccc(OC)cc3)c(N3CCN(CC)CC3)c2c1 [SJ000083971]	–	−6.389
CCN1CCN(c2c(S(=O)(=O)c3ccc(OC)cc3)cnc3cc(OC)c(OC)cc23)CC1 [SJ000083972]	–	7.411
Cc1ccc2ncc(S(=O)(=O)c3ccccc3)c(N3CCN(c4ccccc4)CC3)c2c1 [SJ000083973]	–	−29.7
COc1ccc2ncc(S(=O)(=O)c3ccccc3)c(N3CCN(c4ccccc4)CC3)c2c1 [SJ000083974]	–	−133
CCOc1ccc2ncc(S(=O)(=O)c3ccccc3)c(N3CCN(c4ccccc4)CC3)c2c1 [SJ000083975]	–	−12.06
O=S(=O)(c1ccccc1)c1cnc2ccc(F)cc2c1N1CCN(c2ccccc2)CC1 [SJ000083976]	–	−31.1
O=S(=O)(c1ccccc1)c1cnc2ccc(Cl)cc2c1N1CCN(c2ccccc2)CC1 [SJ000083977]	–	−15.7
COc1ccc2ncc(S(=O)(=O)c3ccccc3)c(N3CCN(c4ccc(F)cc4)CC3)c2c1 [SJ000083978]	–	−133.1
CCOc1ccc2ncc(S(=O)(=O)c3ccccc3)c(N3CCN(c4ccc(F)cc4)CC3)c2c1 [SJ000083979]	–	−181.3
O=S(=O)(c1ccccc1)c1cnc2ccc(F)cc2c1N1CCN(c2ccc(F)cc2)CC1 [SJ000083980]	–	−11.08
COc1ccc(N2CCN(c3c(S(=O)(=O)c4ccccc4)cnc4ccc(C)cc34)CC2)cc1 [SJ000083981]	–	−37.97
COc1ccc(N2CCN(c3c(S(=O)(=O)c4ccccc4)cnc4ccc(F)cc34)CC2)cc1 [SJ000083982]	–	−32.85

Reference: patent publication US20240246941A1, “SUBSTITUTED 4-(3-AMINOPROP-1-YL)AMINOQUINOLINE ANALOGS AS MODULATORS OF MELANOMA-ASSOCIATED ANTIGEN 11 UBIQUITIN LIGASE” (ST. JUDE CHILDREN'S RESEARCH HOSPITAL, INC., priority 2020, published 2024)
